Assay results taken from patent publication US10448639B2, “Fungicidal pyrazoles” (FMC CORPORATION, priority 2009, dated 2019).

Experiments:
Alternaria solani = assay: Test C: tomato early blight, preventive spray on tomato seedlings, visual disease rating; settings: tomato early blight, 100 = 100% disease control; for Test C disease control rating: 0 = no disease control relative to controls
[1] = system: Erysiphe graminis f sp. tritici; assay: Test J: wheat powdery mildew, preventive spray on wheat seedlings, visual disease rating; settings: wheat powdery mildew, 100 = 100% disease control; for Test J disease control rating: sprayed the day before inoculation, 0 = no disease control relative to controls
[2] = system: Puccinia recondita f. sp. tritici; assay: Test I: wheat leaf rust, preventive spray on wheat seedlings, visual disease rating; settings: wheat leaf rust, 100 = 100% disease control; for Test I disease control rating: sprayed the day before inoculation, 0 = no disease control relative to controls
Septoria tritici = assay: Test G: wheat leaf blotch, preventive spray on wheat seedlings, visual disease rating; settings: wheat leaf blotch, 100 = 100% disease control; for Test G disease control rating: sprayed the day before inoculation, 0 = no disease control relative to controls
Septoria nodorum = assay: Test F: Septoria glume blotch, preventive spray on wheat seedlings, visual disease rating; settings: 100 = 100% disease control; for Test F disease control rating: 0 = no disease control relative to controls
[3] = system: Puccinia recondita f. sp. tritici; assay: Test H: wheat leaf rust, curative spray on inoculated wheat seedlings, visual disease rating; settings: wheat leaf rust, 100 = 100% disease control; for Test H disease control rating: sprayed after inoculation, 0 = no disease control relative to controls
Botrytis cinerea = assay: Test B: tomato Botrytis, preventive spray on tomato seedlings, visual disease rating; settings: tomato Botrytis, 100 = 100% disease control; for Test B disease control rating: 0 = no disease control relative to controls
[4] = 0 = no control relative to controls
[5] = preventive, 0 = no control relative to controls
[6] = Septoria glume blotch, 0 = no control relative to controls
[7] = curative, 0 = no control relative to controls
[8] = preventive spray, 0 = no control
[9] = Septoria glume blotch on wheat, preventive spray, 0 = no control

Structure (SMILES)	Test C rating (% disease control) (Alternaria solani; [4])	Test J rating (% disease control) [1, 4]	Test I rating (% disease control) [2, 5]	Test G rating (% disease control) (Septoria tritici; [4])	Test F rating (% disease control) (Septoria nodorum; [6])	Test H rating (% disease control) [3, 7]	Test B rating (% disease control) (Botrytis cinerea; [4])	Test C rating (% disease control) (Alternaria solani; [8])	Test J rating (% disease control) [1, 8]	Test I rating (% disease control) [2, 8]	Test G rating (% disease control) (Septoria tritici; [8])	Test F rating (% disease control) (Septoria nodorum; [9])	Test H rating (% disease control) ([3]; curative spray, 0 = no control)	Test B rating (% disease control) (Botrytis cinerea; [8])	also measured
Cc1nn(C)c(Nc2cc(F)ccc2F)c1-c1c(F)cccc1F [compound 197]	0%	96%	79%	99%	95%	0%	97%	–	–	–	–	–	–	–	–
Cc1nn(C)c(Nc2ncc(F)cc2F)c1-c1c(F)cc(F)cc1F [compound 109]	–	–	–	–	–	–	–	99%	100%	100%	100%	97%	99%	100%	–
Cc1nn(C)c(Nc2ccc(F)cc2F)c1-c1ccc(C#N)cc1Cl [compound 331]	–	–	–	–	–	–	–	–	–	–	–	–	–	–	Test C disease control rating (Alternaria solani): 80%; Test J disease control rating [1]: 97%; Test I disease control rating [2]: 100%; Test G disease control rating (Septoria tritici): 100%; Test F disease control rating (Septoria nodorum; Septoria glume blotch on wheat): 73%; Test H disease control rating [3]: 8%; Test B disease control rating (Botrytis cinerea): 100%
Cc1nn(C)c(Nc2ncc(Cl)cc2Cl)c1-c1ccc(F)cc1Cl [compound 73]	–	–	–	–	–	–	–	99%	99%	100%	100%	64%	88%	100%	–
COc1cccc(Oc2c(-c3c(F)cc(OC)cc3F)c(C)nn2C)c1 [compound 221]	94%	100%	99%	100%	82%	17%	98%	–	–	–	–	–	–	–	–
Cc1nn(C)c(Oc2c(F)cc(C#N)cc2F)c1-c1ccc(Cl)nc1 [compound 86]	–	–	–	–	–	–	–	0%	0%	0%	48%	0%	0%	0%	–
Cc1nn(C)c(Oc2cc(F)cc(F)c2F)c1-c1c(F)cc(F)cc1F [compound 167]	0%	0%	0%	0%	0%	0%	75%	–	–	–	–	–	–	–	–
COc1cc(F)c(-c2c(C)nn(C)c2Nc2ccc(C#N)cc2Cl)c(F)c1 [compound 117]	–	–	–	–	–	–	–	97%	97%	98%	100%	82%	11%	99%	–
Cc1nn(C)c(Nc2cc(F)ccc2F)c1-c1c(F)cc(C#N)cc1F [compound 137]	–	–	–	–	–	–	–	97%	100%	100%	99%	78%	8%	96%	–
Cc1nn(C)c(Oc2cc(C#N)c(C#N)cc2Cl)c1-c1c(F)cc(F)cc1F [compound 163]	9%	0%	88%	83%	0%	0%	0%	–	–	–	–	–	–	–	–
COc1cc(Oc2c(-c3c(F)cc(F)cc3F)c(C)nn2C)ccc1[N+](=O)[O-] [compound 151]	9%	64%	54%	96%	0%	0%	99%	–	–	–	–	–	–	–	–
COc1cc(Nc2c(-c3c(F)cc(C#N)cc3F)c(C)nn2C)ccc1F [compound 127]	–	–	–	–	–	–	–	0%	0%	68%	99%	0%	0%	70%	–
COc1ccc(-c2c(C)nn(C)c2Nc2c(F)ccc(F)c2F)c(Cl)c1 [compound 174]	99%	99%	97%	96%	0%	0%	100%	–	–	–	–	–	–	–	–
Cc1nn(C)c(Nc2c(Cl)cc(F)cc2Cl)c1-c1c(Cl)cccc1Cl [compound 341]	–	–	–	–	–	–	–	–	–	–	–	–	–	–	Test C disease control rating (Alternaria solani): 0%; Test J disease control rating [1]: 93%; Test I disease control rating [2]: 99%; Test G disease control rating (Septoria tritici): 99%; Test F disease control rating (Septoria nodorum; Septoria glume blotch on wheat): 0%; Test H disease control rating [3]: 0%; Test B disease control rating (Botrytis cinerea): 99%
Cc1nn(C)c(Nc2ncc(Cl)cc2Cl)c1-c1ccc(F)cc1F [compound 328]	–	–	–	–	–	–	–	–	–	–	–	–	–	–	Test C disease control rating (Alternaria solani): 86%; Test J disease control rating [1]: 100%; Test I disease control rating [2]: 98%; Test G disease control rating (Septoria tritici): 100%; Test F disease control rating (Septoria nodorum; Septoria glume blotch on wheat): 0%; Test H disease control rating [3]: 0%; Test B disease control rating (Botrytis cinerea): 100%
CCOC(=O)Cn1nc(C)c(-c2c(F)cc(F)cc2F)c1Oc1c(F)cc([N+](=O)[O-])cc1F [compound 65]	–	–	–	–	–	–	–	0%	0%	58%	1%	0%	0%	0%	–
Cc1cccc(Oc2c(-c3c(F)cc(F)cc3F)c(C)nn2C)c1 [compound 219]	0%	0%	0%	0%	0%	17%	70%	–	–	–	–	–	–	–	–
Cc1nn(C)c(Oc2c(F)cc(C#N)cc2F)c1-c1cc(F)ccc1Cl [compound 276]	99%	100%	100%	100%	98%	31%	100%	–	–	–	–	–	–	–	–
